The values below come from PMC7830771 (Molecular cancer therapeutics, 2017).

Test [1] addresses ABCB1 (P-glycoprotein, MDR1) (Homo sapiens, UniProt P08183). Description: vanadate-sensitive ATPase assay, crude membranes of High Five cells. The test is classed as biochemical.
Another test concerns the target T1, ABCC10 (MRP7) (Homo sapiens, UniProt Q5T3U5).
T1 sequence (Q5T3U5 1-1492): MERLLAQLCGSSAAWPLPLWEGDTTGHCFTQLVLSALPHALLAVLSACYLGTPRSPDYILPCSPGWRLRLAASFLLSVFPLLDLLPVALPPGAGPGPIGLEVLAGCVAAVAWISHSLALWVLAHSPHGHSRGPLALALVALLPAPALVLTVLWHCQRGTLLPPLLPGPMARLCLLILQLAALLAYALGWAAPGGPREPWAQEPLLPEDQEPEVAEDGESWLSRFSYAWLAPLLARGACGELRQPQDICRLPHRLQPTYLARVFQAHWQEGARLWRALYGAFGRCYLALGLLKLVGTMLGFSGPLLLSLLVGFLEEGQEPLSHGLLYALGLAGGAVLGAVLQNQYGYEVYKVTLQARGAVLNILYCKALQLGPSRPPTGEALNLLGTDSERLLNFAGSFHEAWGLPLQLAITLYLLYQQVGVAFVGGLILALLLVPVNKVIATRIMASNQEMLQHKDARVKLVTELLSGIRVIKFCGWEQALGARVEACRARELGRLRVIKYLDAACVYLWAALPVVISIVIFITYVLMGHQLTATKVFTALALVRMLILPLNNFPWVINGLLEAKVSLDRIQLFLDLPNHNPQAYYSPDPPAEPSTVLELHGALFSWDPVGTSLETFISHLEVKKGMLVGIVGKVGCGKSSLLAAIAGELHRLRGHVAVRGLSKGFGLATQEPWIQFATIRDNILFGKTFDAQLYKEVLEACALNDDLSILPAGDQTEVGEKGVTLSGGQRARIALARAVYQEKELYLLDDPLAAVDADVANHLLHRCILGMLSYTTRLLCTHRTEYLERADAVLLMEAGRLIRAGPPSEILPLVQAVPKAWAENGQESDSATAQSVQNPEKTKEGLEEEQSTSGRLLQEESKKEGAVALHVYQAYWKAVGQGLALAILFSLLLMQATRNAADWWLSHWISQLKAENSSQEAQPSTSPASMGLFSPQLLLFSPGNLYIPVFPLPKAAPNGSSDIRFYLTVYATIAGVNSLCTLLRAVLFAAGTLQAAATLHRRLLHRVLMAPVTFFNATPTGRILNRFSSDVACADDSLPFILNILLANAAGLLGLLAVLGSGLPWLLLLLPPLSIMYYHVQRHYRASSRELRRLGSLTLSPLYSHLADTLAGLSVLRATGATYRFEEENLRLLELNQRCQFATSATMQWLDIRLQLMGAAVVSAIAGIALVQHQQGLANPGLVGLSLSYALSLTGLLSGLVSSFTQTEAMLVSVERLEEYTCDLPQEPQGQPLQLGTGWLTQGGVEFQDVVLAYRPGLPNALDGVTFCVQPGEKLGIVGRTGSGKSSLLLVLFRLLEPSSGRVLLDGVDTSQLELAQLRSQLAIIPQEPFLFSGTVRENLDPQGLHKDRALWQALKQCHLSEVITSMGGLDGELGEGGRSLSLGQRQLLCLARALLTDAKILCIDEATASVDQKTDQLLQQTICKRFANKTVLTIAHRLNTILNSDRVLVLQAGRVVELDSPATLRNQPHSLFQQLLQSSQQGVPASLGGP
Nature of the test: [3H]-paclitaxel efflux, HEK293/ABCC10 versus HEK293/pcDNA3.[…] cells. The test is classed as cell-based. The settings on record: labelled compound; 0.1 μmol/L; 37°C.

Chain of ABCB1 (P-glycoprotein, MDR1) (P08183 whole entry): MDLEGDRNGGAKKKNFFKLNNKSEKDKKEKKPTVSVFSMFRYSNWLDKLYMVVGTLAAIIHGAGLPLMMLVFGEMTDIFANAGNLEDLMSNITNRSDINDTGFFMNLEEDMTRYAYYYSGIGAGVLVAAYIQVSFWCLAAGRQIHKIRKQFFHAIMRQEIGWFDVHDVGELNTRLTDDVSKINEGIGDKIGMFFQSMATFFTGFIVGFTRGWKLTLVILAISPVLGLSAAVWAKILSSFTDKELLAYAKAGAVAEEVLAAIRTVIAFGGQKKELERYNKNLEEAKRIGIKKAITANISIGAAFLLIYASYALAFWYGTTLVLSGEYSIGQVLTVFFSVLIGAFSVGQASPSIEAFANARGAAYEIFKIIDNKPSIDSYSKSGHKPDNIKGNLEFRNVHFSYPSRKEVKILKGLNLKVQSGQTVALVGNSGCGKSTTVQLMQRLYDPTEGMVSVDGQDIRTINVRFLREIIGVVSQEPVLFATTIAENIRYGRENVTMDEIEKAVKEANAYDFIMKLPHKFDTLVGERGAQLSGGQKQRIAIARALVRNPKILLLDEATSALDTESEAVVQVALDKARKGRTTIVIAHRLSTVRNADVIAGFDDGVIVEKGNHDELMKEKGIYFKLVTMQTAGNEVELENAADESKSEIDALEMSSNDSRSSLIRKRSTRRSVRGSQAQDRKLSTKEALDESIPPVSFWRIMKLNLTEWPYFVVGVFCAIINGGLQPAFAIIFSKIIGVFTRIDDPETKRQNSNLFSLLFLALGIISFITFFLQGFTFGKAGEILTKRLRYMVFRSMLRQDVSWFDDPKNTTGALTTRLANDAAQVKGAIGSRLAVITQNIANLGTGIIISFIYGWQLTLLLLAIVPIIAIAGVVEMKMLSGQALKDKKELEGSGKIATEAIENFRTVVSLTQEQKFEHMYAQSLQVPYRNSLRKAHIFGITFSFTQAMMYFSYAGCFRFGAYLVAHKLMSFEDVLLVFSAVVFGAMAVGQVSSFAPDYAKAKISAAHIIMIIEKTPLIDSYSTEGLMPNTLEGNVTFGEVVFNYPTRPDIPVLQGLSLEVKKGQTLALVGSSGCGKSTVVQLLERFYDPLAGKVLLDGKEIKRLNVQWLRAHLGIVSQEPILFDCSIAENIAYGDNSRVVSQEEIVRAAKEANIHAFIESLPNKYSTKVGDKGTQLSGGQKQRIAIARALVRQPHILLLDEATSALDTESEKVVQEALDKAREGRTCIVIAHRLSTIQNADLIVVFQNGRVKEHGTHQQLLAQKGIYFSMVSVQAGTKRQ

`C=CC(=O)N1CCC[C@@H](n2nc(-c3ccc(Oc4ccccc4)cc3)c3c(N)ncnc32)C1` [ibrutinib] gave an EC50 in test [1] of 641 nM.
For `CC(=O)O[C@H]1C(=O)[C@@]2(C)[C@H]([C@H](OC(=O)c3ccccc3)[C@]3(O)C[C@H](OC(=O)[C@H](O)[C@@H](NC(=O)c4ccccc4)c4ccccc4)C(C)=C1C3(C)C)[C@]1(OC(C)=O)CO[C@@H]1C[C@@H]2O` [paclitaxel], on ABCC10 (MRP7), the “[3H]-paclitaxel efflux, HEK293/ABCC10 versus HEK293/pcDNA3.1 cells” value was “KB-C2 and HEK293/ABCC10 cells efflux more [^3H]-paclitaxel out of the cells”.

Broadly, the EC50 is the concentration that produces a half-maximal response. Lower therefore signals a more potent agent.
